Experimental data reported in the NIST ThermoML archive (doi:10.1016/j.jct.2017.03.032).

Test: wn = mass fraction of the nth substance listed
Conditions: Gas, Burnett expansion method

F/C=C/C(F)(F)F [trans-1,3,3,3-tetrafluoropropene] + CC(C)C
Conditions | mass density [kg/m3]
315.14 K, 227.3 kPa, w1 = 0.65 | 7.7977
315.14 K, 297.2 kPa, w1 = 0.65 | 10.348
315.14 K, 301.4 kPa, w1 = 0.75 | 11.3213
315.14 K, 386 kPa, w1 = 0.65 | 13.7325
315.14 K, 392.5 kPa, w1 = 0.75 | 15.0241
315.14 K, 497.8 kPa, w1 = 0.65 | 18.2238
315.14 K, 506.8 kPa, w1 = 0.75 | 19.9379
315.14 K, 642.7 kPa, w1 = 0.75 | 26.4588
315.15 K, 173.5 kPa, w1 = 0.65 | 5.8759
315.15 K, 173.8 kPa, w1 = 0.7 | 6.1345
315.15 K, 175.6 kPa, w1 = 0.75 | 6.4285
315.15 K, 190.1 kPa, w1 = 0.85 | 7.5778
315.15 K, 229.1 kPa, w1 = 0.7 | 8.1409
315.15 K, 230.4 kPa, w1 = 0.75 | 8.531
315.15 K, 249.3 kPa, w1 = 0.85 | 10.0562
315.15 K, 299.1 kPa, w1 = 0.7 | 10.8034
315.15 K, 325.7 kPa, w1 = 0.85 | 13.3452
315.15 K, 390.1 kPa, w1 = 0.7 | 14.3368
315.15 K, 422.3 kPa, w1 = 0.85 | 17.7101
315.15 K, 497.7 kPa, w1 = 0.7 | 19.0258
315.15 K, 539.7 kPa, w1 = 0.85 | 23.5026
315.16 K, 185.3 kPa, w1 = 0.8 | 7.0584
315.16 K, 317.7 kPa, w1 = 0.8 | 12.4305
315.16 K, 333.2 kPa, w1 = 0.9 | 14.2331
315.16 K, 412.2 kPa, w1 = 0.8 | 16.4962
315.16 K, 529.7 kPa, w1 = 0.8 | 21.8918
315.17 K, 148.1 kPa, w1 = 0.9 | 6.0901
315.17 K, 194.6 kPa, w1 = 0.9 | 8.0819
315.17 K, 243 kPa, w1 = 0.8 | 9.3669
315.17 K, 255.2 kPa, w1 = 0.9 | 10.7253
315.17 K, 432.8 kPa, w1 = 0.9 | 18.8881
315.17 K, 551.9 kPa, w1 = 0.9 | 25.0657
320.12 K, 779.8 kPa, w1 = 0.8 | 33.8752
320.13 K, 286 kPa, w1 = 0.8 | 10.922
320.13 K, 373.2 kPa, w1 = 0.8 | 14.4942
320.13 K, 483.3 kPa, w1 = 0.8 | 19.2347
320.13 K, 616.7 kPa, w1 = 0.8 | 25.5259
320.14 K, 165.2 kPa, w1 = 0.8 | 6.2018
320.14 K, 168.8 kPa, w1 = 0.9 | 6.8698
320.14 K, 218.3 kPa, w1 = 0.8 | 8.2301
320.14 K, 221.7 kPa, w1 = 0.9 | 9.1166
320.14 K, 290.4 kPa, w1 = 0.9 | 12.0982
320.14 K, 378.8 kPa, w1 = 0.9 | 16.0551
320.14 K, 491 kPa, w1 = 0.9 | 21.3061
320.14 K, 621.3 kPa, w1 = 0.9 | 28.2744
320.15 K, 148.8 kPa, w1 = 0.7 | 5.1243
320.15 K, 195.8 kPa, w1 = 0.7 | 6.8002
320.15 K, 256.8 kPa, w1 = 0.7 | 9.0242
320.15 K, 335.6 kPa, w1 = 0.7 | 11.9756
320.15 K, 340.3 kPa, w1 = 0.65 | 11.7766
320.15 K, 435.2 kPa, w1 = 0.7 | 15.8926
320.15 K, 441.3 kPa, w1 = 0.65 | 15.6283
320.15 K, 556 kPa, w1 = 0.7 | 21.0901
320.15 K, 569.2 kPa, w1 = 0.65 | 20.7395
320.16 K, 152 kPa, w1 = 0.65 | 5.039
320.16 K, 154 kPa, w1 = 0.75 | 5.5344
320.16 K, 199.9 kPa, w1 = 0.65 | 6.687
320.16 K, 262 kPa, w1 = 0.65 | 8.8741
320.16 K, 266.1 kPa, w1 = 0.75 | 9.7466
320.16 K, 347.7 kPa, w1 = 0.75 | 12.9343
320.16 K, 577.4 kPa, w1 = 0.75 | 22.7785
320.16 K, 730.8 kPa, w1 = 0.75 | 30.2287
320.17 K, 203 kPa, w1 = 0.75 | 7.3444
320.17 K, 451.9 kPa, w1 = 0.75 | 17.1645
320.19 K, 162.2 kPa, w1 = 0.85 | 6.3277
320.19 K, 214.1 kPa, w1 = 0.85 | 8.3973
320.19 K, 279.4 kPa, w1 = 0.85 | 11.1439
320.19 K, 364.7 kPa, w1 = 0.85 | 14.7884
320.19 K, 472.3 kPa, w1 = 0.85 | 19.6252
320.19 K, 605 kPa, w1 = 0.85 | 26.0438
320.19 K, 764.8 kPa, w1 = 0.85 | 34.5619
325.1 K, 181 kPa, w1 = 0.85 | 6.9723
325.1 K, 219.4 kPa, w1 = 0.75 | 7.845
325.1 K, 287.7 kPa, w1 = 0.75 | 10.4108
325.1 K, 311.6 kPa, w1 = 0.85 | 12.2787
325.1 K, 374.7 kPa, w1 = 0.75 | 13.8158
325.1 K, 406.4 kPa, w1 = 0.85 | 16.2947
325.1 K, 488 kPa, w1 = 0.75 | 18.3343
